Source: patent US9487504B2, “Imidazolyl analogs as syk inhibitors” (Merck Sharp & Dohme Corp., priority 2012, dated 2016)

Molecular target: T1, recombinant human GST-Syk (Homo sapiens, UniProt P43405)
T1 construct: purchased Carna Biosciences 08-176
Assay: Homogeneous Time-Resolved Fluorescence (HTRF) assay for the recombinant human Syk enzyme
Assay type: biochemical
Conditions: ATP 25 μM, 10-dose titration, read-out: rhSYK Activity
Summary of the method: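 Recombinant GST-hSyk ([…]) was preincubated 10 min at room temperature with inhibitor (0.1% DMSO) in Tris pH 7.5, then reacted for 45 min with 250 nM biotinylated peptide, 5 mM Mg and 25 μM ATP. Phosphorylation was detected by HTRF (Eu-anti-phosphotyrosine/SA-APC). IC50 was derived from a 10-dose titration (10 μM–0.508 nM) with a 4-parameter fit.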

| IC50 | Structure (SMILES) |
| --- | --- |
| ≤ 100 nM | Cc1cc(Nc2cc(C(F)(F)F)ccn2)nc(-n2cnc([C@]3(O)CC[C@@H](O)CC3)c2)c1 [Example 62, cis-1-[1-(4-methyl-6-{[4-(trifluoromethyl)pyridin-2-yl]amino}pyridin-2-yl)-1H-imidazol-4-yl]cyclohexane-1,4-diol] |
| 100 to 1000 nM | Cc1cc(Nc2nccc(C(F)(F)F)n2)cc(-n2cnc(C(=O)NC(C)C)c2)c1 [Example 89, N-(1-methylethyl)-1-(3-methyl-5-{[4-(trifluoromethyl)pyrimidin-2-yl]amino}-phenyl)-1H-imidazole-4-carboxamide] |
| ≤ 100 nM | Cc1cc(Nc2nccc(C(F)(F)F)n2)cc(-n2cnc(C(=O)N3CCCC3)c2)c1 [Example 88, N-{3-methyl-5-[4-(pyrrolidin-1-ylcarbonyl)-1H-imidazol-1-yl]phenyl}-4-(trifluoromethyl)pyrimidin-2-amine] |
| ≤ 100 nM | Cc1cc(Nc2nccc(C(F)(F)F)n2)cc(-n2cnc([C@]3(O)CC[C@@H](C(=O)N4CCOCC4)CC3)c2)c1 [Example 30, cis-1-[1-(3-methyl-5-{[4-(trifluoromethyl)pyrimidin-2-yl]amino}phenyl)-1H-imidazol-4-yl]-4-(morpholin-4-ylcarbonyl)cyclohexanol] |
| ≤ 100 nM | Cc1cc(Nc2cc(Cl)ccn2)nc(-n2cnc(C(O)(C3CC3)C3CC3)c2)c1 [Example 80, (1-{6-[(4-chloropyridin-2-yl)amino]-4-methylpyridin-2-yl}-1H-imidazol-4-yl)(dicyclopropyl)-methanol] |
| ≤ 100 nM | Cc1cc(Nc2cc(Cl)ccn2)nc(-n2cnc(C(C)(C)O)c2)c1 [Example 95, 2-(1-{6-[(4-chloropyridin-2-yl)amino]-4-methylpyridin-2-yl}-1H-imidazol-4-yl)propan-2-ol] |
| ≤ 100 nM | COC(=O)c1ccc2c(c1)ncn2-c1cc(C)cc(Nc2nccc(C)n2)c1 [Example 73, Methyl 1-{3-methyl-5-[(4-methyl-pyrimidin-2-yl)amino]phenyl}-1H-benzimidazole-5-carboxylate] |
| ≤ 100 nM | COC(=O)c1cn(-c2cc(C)cc(Nc3cc(Cl)ccn3)n2)cn1 [Example 97, Methyl 1-{6-[(4-chloropyridin-2-yl)amino]-4-methylpyridin-2-yl}-1H-imidazole-4-carboxylate] |
| ≤ 100 nM | Cc1cc(Nc2nccc(C(F)(F)F)n2)cc(-n2cnc([C@]3(O)CC[C@@](C)(C(=O)O)C[C@H]3O)c2)c1 (single isomer, unassigned) [5 (isomer 2)] |
| ≤ 100 nM | Cc1cc(Nc2nccc(C(F)(F)F)n2)cc(-n2cnc(CC#N)c2)c1 [Example 77, [1-(3-methyl-5-{[4-(trifluoromethyl)pyrimidin-2-yl]amino}-phenyl)-1H-imidazol-4-yl]acetonitrile] |
| 100 to 1000 nM | Cc1cc(Nc2nccc(C(F)(F)F)n2)cc(-n2cc(C(C)(C)O)nc2C)c1 [Example 68, 2-[2-Methyl-1-(3-methyl-5-{[4-(trifluoromethyl)pyrimidin-2-yl]amino}phenyl)-1H-imidazol-4-yl]propan-2-ol] |
| ≤ 100 nM | CC(C)(O)CCc1cn(-c2cc(Nc3nccc(C(F)(F)F)n3)cc(N3CCOCC3)c2)cn1 [Example 105, 2-methyl-4-[1-(3-morpholin-4-yl-5-{[4-(trifluoromethyl)pyrimidin-2-yl]amino}-phenyl)-1H-imidazol-4-yl]butan-2-ol] |
| ≤ 100 nM | Cc1cc(Nc2nccc(C3CC3)n2)cc(-n2cnc([C@]3(O)CC[C@@H](O)CC3)c2)c1 [Example 40, cis-1-(1-{3-[(4-cyclopropylpyrimidin-2-yl)amino]-5-methylphenyl}-1H-imidazol-4-yl)cyclohexane-1,4-diol] |
| ≤ 100 nM | Cc1cc(Nc2nccc(C(F)(F)F)n2)cc(-n2cnc(C3(O)CCC(=O)CC3)c2)c1 [Example 53, 4-hydroxy-4-[1-(3-methyl-5-{[4-(trifluoromethyl)pyrimidin-2-yl]amino}phenyl)-1H-imidazol-4-yl]cyclohexanone] |
| ≤ 100 nM | Cc1cc(Nc2nccc(C(F)(F)F)n2)cc(-n2cnc([C@]3(O)CC[C@H](C(N)=O)CC3)c2)c1 [Example 33, trans-4-hydroxy-4-[1-(3-methyl-5-{[4-(trifluoro-methyl)pyrimidin-2-yl]amino}phenyl)-1H-imidazol-4-yl]-cyclohexanecarboxamide] |
| ≤ 100 nM | Cc1cc(Nc2nccc(C(F)(F)F)n2)cc(-n2cnc([C@]3(O)CC[C@@H](C(N)=O)CC3)c2)c1 [Example 34, cis-4-hydroxy-4-[1-(3-methyl-5-{[4-(trifluoromethyl)-pyrimidin-2-yl]amino}phenyl)-1H-imidazol-4-yl]-cyclohexanecarboxamide] |

| IC50 | Structure (SMILES) |
| --- | --- |
| ≤ 100 nM | Cc1cc(Nc2nccc(C(F)(F)F)n2)cc(-n2cc(C(=O)O)nc2C)c1 [Example 67, 2-Methyl-1-(3-methyl-5-{[4-(trifluoromethyl)pyrimidin-2-yl]amino}phenyl)-1H-imidazole-4-carboxylic acid] |
| 100 to 1000 nM | CCOC(=O)C(C)(C)C1CCC(O)(c2cn(-c3cc(C)cc(Nc4cc(C(F)(F)F)ccn4)n3)cn2)CC1 (stereo not drawn) [Example 24, Ethyl 2-{trans-4-hydroxy-4-[1-(4-methyl-6-{[4-(trifluoromethyl)-pyridin-2-yl]amino}-pyridin-2-yl)-1H-imidazol-4-yl]-cyclohexyl}-2-methylpropanoate] |
| ≤ 100 nM | Cc1cc(Nc2cc(C(F)(F)F)ccn2)nc(-n2cnc([C@]3(O)CC[C@H](O)CC3)c2)c1 [Example 61, trans-1-[1-(4-methyl-6-{[4-(trifluoromethyl)pyridin-2-yl]amino}pyridin-2-yl)-1H-imidazol-4-yl]cyclohexane-1,4-diol] |
| ≤ 100 nM | CNC(=O)[C@H]1CC[C@](O)(c2cn(-c3cc(C)cc(Nc4nccc(C(F)(F)F)n4)c3)cn2)CC1 [Example 1, Cis-4-hydroxy-N-methyl-4-[1-(3-methyl-5-{[4-(trifluoromethyl)pyrimidin-2-yl]amino}phenyl)-1H-imidazol-4-yl]cyclohexanecarboxamide] |
| ≤ 100 nM | Cc1cc(Nc2nccc(C(F)(F)F)n2)cc(-n2cnc(C(C)(C)C(=O)O)c2)c1 [Example 111, 2-Methyl-2-[1-(3-methyl-5-{[4-(trifluoromethyl)pyrimidin-2-yl]amino}phenyl)-1H-imidazol-4-yl]propanoic acid] |
| ≤ 100 nM | Cc1cc(Nc2cc(C3CC3)ccn2)nc(-n2cnc([C@]3(O)CC[C@@H](O)CC3)c2)c1 [Example 45, cis-1-(1-{6-[(4-cyclopropylpyridin-2-yl)amino]-4-methylpyridin-2-yl}-1H-imidazol-4-yl)cyclohexane-1,4-diol] |
| ≤ 100 nM | Cc1cc(Nc2nccc(C(F)(F)F)n2)cc(-n2cnc([C@]3(O)CC[C@@H](CC(=O)O)CC3)c2)c1 [Example 16, {cis-4-hydroxy-4-[1-(3-methyl-5-{[4-(trifluoromethyl)pyrimidin-2-yl]amino}phenyl)-1H-imidazol-4-yl]-cyclohexyl}acetic acid] |
| ≤ 100 nM | Cc1cc(Nc2nccc(C(F)(F)F)n2)cc(-n2cnc(C(C)(O)[C@H]3CC[C@H](C(=O)O)CC3)c2)c1 (relative stereo) [Example 10, trans-4-{1-hydroxy-1-[1-(3-methyl-5-{[4-(trifluoromethyl)pyrimidin-2-yl]amino}phenyl)-1H-imidazol-4-yl]ethyl}-cyclohexanecarboxylic acid] |
| ≤ 100 nM | COC(=O)c1cn(-c2cc(N)cc(Nc3cc(C(F)(F)F)ccn3)n2)cn1 [Example 85, Methyl 1-(4-amino-6-{[4-(trifluoromethyl)-pyridin-2-yl]amino}-pyridin-2-yl)-1H-imidazole-4-carboxylate] |
| ≤ 100 nM | Nc1cc(Nc2cc(Cl)ccn2)nc(-n2cnc(C(O)(C3CC3)C3CC3)c2)c1 [Example 79, (1-{4-amino-6-[(4-chloropyridin-2-yl)amino}pyridin-2-yl}-1H-imidazol-4-yl)(dicyclopropyl)methanol] |
| ≤ 100 nM | Cc1cc(Nc2cc(C)c(F)cn2)nc(-n2cnc([C@]3(O)CC[C@@H](OC(=O)c4ccccc4)CC3)c2)c1 [Example 48, cis-4-(1-{6-[(5-fluoro-4-methylpyridin-2-yl)amino]-4-methylpyridin-2-yl}-1H-imidazol-4-yl)-4-hydroxycyclohexyl benzoate] |
| ≤ 100 nM | Cc1cc(Nc2nccc(C(F)(F)F)n2)cc(-n2cnc([C@@]3(O)CC[C@@](C)(C(=O)O)C[C@@H]3O)c2)c1 (single isomer, unassigned) [5 (isomer 1)] |
| 100 to 1000 nM | COC(=O)c1cn(-c2cccc(Nc3cc(C)ccn3)n2)cn1 [Example 102, Methyl 1-{6-[(4-methylpyridin-2-yl)amino]pyridin-2-yl}-1H-imidazole-4-carboxylate] |
| 100 to 1000 nM | Cc1cc(Nc2nccc(C(F)(F)F)n2)cc(-n2cnc(C(C)(C)C#N)c2)c1 [Example 110, 2-Methyl-2-[1-(3-methyl-5-{[4-(trifluoromethyl)pyrimidin-2-yl]amino}phenyl)-1H-imidazol-4-yl]propanenitrile] |
| 100 to 1000 nM | Cc1cc(Nc2ncc(F)c(C3CC3)n2)cc(-n2cnc([C@]3(O)CC[C@@H](OC(=O)c4ccccc4)CC3)c2)c1 [Example 60, cis-4-(1-{3-[(4-cyclopropyl-5-fluoropyrimidin-2-yl)amino]-5-methylphenyl}-1H-imidazol-4-yl)-4-hydroxycyclohexyl benzoate] |
| ≤ 100 nM | Cc1cc(Nc2nccc(C)n2)cc(-n2cnc([C@]3(O)CC[C@@H](O)CC3)c2)c1 [Example 38, Cis-1-(1-{3-methyl-5-[(4-methylpyrimidin-2-yl)amino]phenyl}-1H-imidazol-4-yl)cyclohexane-1,4-diol] |

Same assay, conditions: ATP 25 μM, 10-dose titration, read-out: rhSYK IC50

| IC50 | Structure (SMILES) |
| --- | --- |
| 1.36 nM | Cc1cc(Nc2cc(C(F)(F)F)ccn2)nc(-n2cnc([C@]3(O)CC[C@@H](O)CC3)c2)c1 [Example 62, cis-1-[1-(4-methyl-6-{[4-(trifluoromethyl)pyridin-2-yl]amino}pyridin-2-yl)-1H-imidazol-4-yl]cyclohexane-1,4-diol] |
| 6.1 nM | CNC(=O)[C@H]1CC[C@](O)(c2cn(-c3cc(C)cc(Nc4nccc(C(F)(F)F)n4)c3)cn2)CC1 [Example 1, Cis-4-hydroxy-N-methyl-4-[1-(3-methyl-5-{[4-(trifluoromethyl)pyrimidin-2-yl]amino}phenyl)-1H-imidazol-4-yl]cyclohexanecarboxamide] |
| 1.38 nM | Cc1cc(Nc2cc(C3CC3)ccn2)nc(-n2cnc([C@]3(O)CC[C@@H](O)CC3)c2)c1 [Example 45, cis-1-(1-{6-[(4-cyclopropylpyridin-2-yl)amino]-4-methylpyridin-2-yl}-1H-imidazol-4-yl)cyclohexane-1,4-diol] |
| 12.7 nM | CCOC(=O)C1CCC(O)(c2cn(-c3cc(C)cc(Nc4nccc(C(F)(F)F)n4)c3)cn2)CC1 (centres unmarked) [1, Step 1] |
| 1.64 nM | Cc1cc(Nc2nccc(C(F)(F)F)n2)cc(-n2cnc([C@]3(O)CC[C@@H](CC(=O)O)CC3)c2)c1 [Example 16, {cis-4-hydroxy-4-[1-(3-methyl-5-{[4-(trifluoromethyl)pyrimidin-2-yl]amino}phenyl)-1H-imidazol-4-yl]-cyclohexyl}acetic acid] |
| 1.78 nM | Cc1cc(Nc2nccc(C(F)(F)F)n2)cc(-n2cnc(C(C)(O)[C@H]3CC[C@H](C(=O)O)CC3)c2)c1 (relative stereo) [Example 10, trans-4-{1-hydroxy-1-[1-(3-methyl-5-{[4-(trifluoromethyl)pyrimidin-2-yl]amino}phenyl)-1H-imidazol-4-yl]ethyl}-cyclohexanecarboxylic acid] |
